In patent publication US9518022B2, “Anti-HIV compounds” (priority 2014, dated 2016):
Like-named read-outs stand apart in the source and are kept apart here.

Assay: Cytotoxicity assay (AlamarBlue) in mock infected MT-2 cells
Format: cell-based
Conditions: human
Description: The present assay was used to screen candidate antiviral compounds by quantification of virus spread and production over several rounds of infection in vitro. MT-2, a HIV-1 permissive human T-cell line, was seeded in microtiter plates and was simultaneously treated with serially diluted compound and inoculated with a HIV-1 NL4-3 viral clone engineered to express Renilla luciferase in place of Nef. Following treatment, the culture was incubated for 96 hours. After the incubation, media was collected and used to estimate relative infectivity on the indicator cell line, TZM-bl. Additionally, viral spread was quantified by measuring luciferase activity via a commercially available luciferase substrate. In parallel, MT-2 cells were seeded and inoculated with mock virus in the presence of serially diluted compound. Compound toxicity was quantified 96 hours after treatment with AlamarBlue.
MT-2 (NIH Aids reagent program 237) cells were grown and maintained in an incubator at 37° C. with 5% CO2 using a basal medium of RPMI-1640 supplemented with 10% FBS. Cells were seeded in 100 μl at 2×10^4 cells/well in white walled 96-well microtiter plates. Candidate compounds were 3-fold serially diluted in the appropriate solvent. Solvent without compound was used as a no drug reference. Cells were inoculated at a multiplicity of 0.027 with an HIV-1 NL4-3 virus stock engineered to express Renilla luciferase in place of Nef. Diluted virus stock was first added to serially diluted compound. Compound and virus were delivered to cells in an equal volume (100 μl) and treated cultures were returned to the incubator for 96 hours. In parallel, plates for cytotoxicity estimates were prepared in the same way except cells were plated in clear walled 96-well microtiter plates and were mock infected.
At 96 hours post treatment, 20 μl AlamarBlue proliferation reagent was added to 200 μl treated and mock infected cultures and incubated for 3 hours at 37° C. with 5% CO2 then read at 545, 590 nm on fluorescence plate reader (Biotek).
For all assays, data was imported into Accelrys Assay Explorer 3.3. In Assay Explorer, % inhibition (antiviral or cytotoxicity) was calculated using the solvent control as a reference by the following equation: 1−(SignalCompound/SignalReference). The % Inhibition and compound concentration data was fitted using the following 4-parameter logistic model (Assay Explorer model 42):
[formula] where X is compound concentration, Y is % inhibition, D is the maximum % Inhibition (constrained to 100%), C is IC50 value or inflection point, B is the hill slope, and A is the minimum % inhibition (constrained to 0%). The IC50 value is reported as the EC50 or CC50 depending on the assay endpoint. EC50 represents the effective concentration at which virus replication is inhibited by 50 percent. CC50 represents the concentration that results in the death of 50 percent of the host cells. The selectivity or therapeutic index (SI or TI), is the ratio of CC50 over EC50 and represents the relative effectiveness in inhibiting viral replication compared to inducing cell death.

[1] = mock infected MT-2 cells, 96 hours, AlamarBlue, read-out: CC50

Compound	CC50 at 96 h	CC50 at 96 h [1]
COc1cc2c(cc1OCc1ccccc1)CCNC2/C=C/c1cc(OC)c(OC)c(OC)c1 (stereo not shown) [Example AM, 6-Benzyloxy-7-methoxy-1-[(E)-2-(3,4,5-trimethoxyphenyl)vinyl]-1,2,3,4-tetrahydroisoquinoline]	6 µM	–
COc1cc2c(cc1OCc1ccccc1)CCNC2/C=C/c1cc2ccccc2s1 (stereo not shown) [DU, 1-[(E)-2-(1-benzothiophen-2-yl)ethenyl]-6-(benzyloxy)-7-methoxy-1,2,3,4-tetrahydroisoquinoline]	16.3 µM	–
COc1cc2c(cc1OCc1ccccc1)CCNC2/C=C/c1ccc(F)cc1C (stereo not shown) [Example X, 6-benzyloxy-1-[(E)-2-(4-fluoro-2-methyl-phenyl)vinyl]-7-methoxy-1,2,3,4-tetrahydroisoquinoline]	–	5.3 µM
COc1cc2c(cc1OCc1ccccc1)CCNC2/C=C/c1cc(C(C)C)c(OC)cc1C (stereo not shown) [BW, 6-(benzyloxy)-7-methoxy-1-[(E)-2-[4-methoxy-2-methyl-5-(propan-2-yl)phenyl]ethenyl]-1,2,3,4-tetrahydroisoquinoline]	1.88 µM	–
COc1cc2c(cc1OCc1ccccc1)CCNC2/C=C/c1ccnn1C (stereo not shown) [Example AK, 6-benzyloxy-7-methoxy-1-[(E)-2-(2-methylpyrazol-3-yl)vinyl]-1,2,3,4-tetrahydroisoquinoline]	10 µM	–
COc1cc2c(cc1OCc1ccccc1)CCNC2/C=C/c1ccc(OC)c(C)c1C (stereo not shown) [EL, 6-(benzyloxy)-7-methoxy-1-[(E)-2-(4-methoxy-2,3-dimethylphenyl)ethenyl]-1,2,3,4-tetrahydroisoquinoline]	3.25 µM	–
COc1ccc(/C=C/C2NCCc3cc(OCc4ccccc4)c(OC)cc32)cn1 (stereo not shown) [AX, 6-benzyloxy-7-methoxy-1-[(E)-2-(6-methoxy-3-pyridyl)vinyl]-1,2,3,4-tetrahydroisoquinoline]	–	11.4 µM
COc1cc2c(cc1OCc1ccccc1)CCNC2/C=C/c1cccc(-c2ccncc2)c1 (stereo not shown) [DQ, 6-(benzyloxy)-7-methoxy-1-[(E)-2-[3-(pyridin-4-yl)phenyl]ethenyl]-1,2,3,4-tetrahydroisoquinoline]	4.4 µM	–
CCCCOc1cc(/C=C/C2NCCc3cc(OCc4ccccc4)c(OC)cc32)c(C)cc1OC (stereo not shown) [BL, 6-(benzyloxy)-1-[(E)-2-(5-butoxy-4-methoxy-2-methylphenyl)ethenyl]-7-methoxy-1,2,3,4-tetrahydroisoquinoline]	1.1 µM	–
COc1cc2c(cc1OCc1ccccc1)CCNC2/C=C/c1ccccc1C(=O)O (stereo not shown) [ES, 2-[(E)-2-[6-(benzyloxy)-7-methoxy-1,2,3,4-tetrahydroisoquinolin-1-yl]ethenyl]benzoic acid]	10 µM	–
COc1cc2occc2cc1/C=C/C1NCCc2cc(OCc3ccccc3)c(OC)cc21 (stereo not shown) [EB, 6-(benzyloxy)-7-methoxy-1-[(E)-2-(6-methoxy-1-benzofuran-5-yl)ethenyl]-1,2,3,4-tetrahydroisoquinoline]	6 µM	–
COc1ccc(OC)c(/C=C/C2NCCc3cc(OCc4ccccc4)c(OC)cc32)c1 (stereo not shown) [EK, 6-(benzyloxy)-1-[(E)-2-(2,5-dimethoxyphenyl)ethenyl]-7-methoxy-1,2,3,4-tetrahydroisoquinoline]	–	3.6 µM
COc1cc(F)c(/C=C/C2NCCc3cc(OCc4ccccc4)c(OC)cc32)cc1OC (stereo not shown) [BP, 6-(benzyloxy)-1-[(E)-2-(2-fluoro-4,5-dimethoxyphenyl)ethenyl]-7-methoxy-1,2,3,4-tetrahydroisoquinoline]	5.61 µM	–
CCN1CCN(c2ccc(/C=C/C3NCCc4cc(OCc5ccccc5)c(OC)cc43)cc2)CC1 (stereo not shown) [DO, 6-(benzyloxy)-1-[(E)-2-[4-(4-ethylpiperazin-1-yl)phenyl]ethenyl]-7-methoxy-1,2,3,4-tetrahydroisoquinoline]	3.61 µM	–
COc1cc2c(cc1OCc1ccccc1)CCNC2/C=C/c1ccc(-n2ccnc2C)cc1 (stereo not shown) [DM, 6-(benzyloxy)-7-methoxy-1-[(E)-2-[4-(2-methyl-1H-imidazol-1-yl)phenyl]ethenyl]-1,2,3,4-tetrahydroisoquinoline]	21.1 µM	–
CCCCN1CCc2cc(OC)c(OCc3ccccc3)cc2C1/C=C/c1ccc(OCc2ccccc2)c(OC)c1 (stereo not shown) [Example D, 7-Benzyloxy-1-[(E)-2-(4-benzyloxy-3-methoxy-phenyl)vinyl]-2-butyl-6-methoxy-3,4-dihydro-1H-isoquinoline]	> 10 µM	–

Compound	CC50 at 96 h	CC50 at 96 h [1]
COc1cc(F)c(/C=C/C2NCCc3cc(OCc4ccccc4)c(OC)cc32)c(F)c1 (stereo not shown) [BU, 6-(benzyloxy)-1-[(E)-2-(2,6-difluoro-4-methoxyphenyl)ethenyl]-7-methoxy-1,2,3,4-tetrahydroisoquinoline]	10.6 µM	–
COc1cc(C)c(/C=C/C2=NCCc3cc(OCc4ccccc4)c(OC)cc32)cc1OCc1ccccc1 [Example AE, 6-benzyloxy-1-[(E)-2-(5-benzyloxy-4-methoxy-2-methyl-phenyl)vinyl]-7-methoxy-3,4-dihydroisoquinoline]	33.5 µM	–
COc1cccc(/C=C/C2NCCc3cc(OCc4ccccc4)c(OC)cc32)c1 (stereo not shown) [EJ, 6-(benzyloxy)-7-methoxy-1-[(E)-2-(3-methoxyphenyl)ethenyl]-1,2,3,4-tetrahydroisoquinoline]	–	10 µM
COc1cc2c(cc1OCc1ccccc1)CCNC2/C=C/c1ccc(OC)c(C(F)(F)F)c1 (stereo not shown) [CY, 6-(benzyloxy)-7-methoxy-1-[(E)-2-[4-methoxy-3-(trifluoromethyl)phenyl]ethenyl]-1,2,3,4-tetrahydroisoquinoline]	4 µM	–
COc1cc2c(cc1OCc1ccccc1)CCNC2/C=C/c1sccc1C (stereo not shown) [BS, 6-(benzyloxy)-7-methoxy-1-[(E)-2-(3-methylthiophen-2-yl)ethenyl]-1,2,3,4-tetrahydroisoquinoline]	11.3 µM	–
COc1cc2c(cc1OCc1ccccc1)CCNC2/C=C/c1nccs1 (stereo not shown) [DV, 6-(benzyloxy)-7-methoxy-1-[(E)-2-(1,3-thiazol-2-yl)ethenyl]-1,2,3,4-tetrahydroisoquinoline]	21.8 µM	–
COc1cc2c(cc1OCc1ccccc1)CCNC2/C=C/c1cc(OCC(C)(C)C)c(OC)cc1C (stereo not shown) [BX, 6-(benzyloxy)-1-[(E)-2-[5-(2,2-dimethylpropoxy)-4-methoxy-2-methylphenyl]ethenyl]-7-methoxy-1,2,3,4-tetrahydroisoquinoline]	3.4 µM	–
COc1cc2c(cc1OCc1ccccc1)CCNC2/C=C/c1cc(OCc2ccccc2)ccc1C (stereo not shown) [Example AD, 6-benzyloxy-1-[(E)-2-(5-benzyloxy-2-methyl-phenyl)vinyl]-7-methoxy-1,2,3,4-tetrahydroisoquinoline]	3.22 µM	–
COc1cc(C)c(/C=C/C2c3cc(OC)c(OCc4ccccc4)cc3CCN2C)cc1OCc1ccccc1 (stereo not shown) [Example E, 6-Benzyloxy-1-[(E)-2-(5-benzyloxy-4-methoxy-2-methyl-phenyl)vinyl]-7-methoxy-2-methyl-3,4-dihydro-1H-isoquinoline]	7.17 µM	–
COc1ccc(/C=C/C2NCCc3cc(OCc4ccccc4)c(OC)cc32)c(F)c1 (stereo not shown) [BR, 6-(benzyloxy)-1-[(E)-2-(2-fluoro-4-methoxyphenyl)ethenyl]-7-methoxy-1,2,3,4-tetrahydroisoquinoline]	10 µM	–
COc1cc2c(cc1OCc1ccccc1)CCNC2/C=C/c1ccc(N(C)C)cc1C (stereo not shown) [BG, 4-[(E)-2-[6-(benzyloxy)-7-methoxy-1,2,3,4-tetrahydroisoquinolin-1-yl]ethenyl]-N,N,3-trimethylaniline]	4.44 µM	–
COc1cc(OC)c(/C=C/C2NCCc3cc(OCc4ccccc4)c(OC)cc32)cc1C (stereo not shown) [EH, 6-(benzyloxy)-1-[(E)-2-(2,4-dimethoxy-5-methylphenyl)ethenyl]-7-methoxy-1,2,3,4-tetrahydroisoquinoline]	3.59 µM	–
COc1cc2c(cc1OCc1ccccc1)CCNC2/C=C/c1ccc2c(c1)OC(F)(F)O2 (stereo not shown) [DF, 6-(benzyloxy)-1-[(E)-2-(2,2-difluoro-2H-1,3-benzodioxol-5-yl)ethenyl]-7-methoxy-1,2,3,4-tetrahydroisoquinoline]	10 µM	–
COc1cc(Cl)c(/C=C/C2NCCc3cc(OCc4ccccc4)c(OC)cc32)cc1OCc1ccccc1 (stereo not shown) [Example AC, 6-benzyloxy-1-[(E)-2-(5-benzyloxy-2-chloro-4-methoxy-phenyl)vinyl]-7-methoxy-1,2,3,4-tetrahydroisoquinoline]	1.9 µM	–
COc1ccc(/C=C/C2NCCc3cc(OCc4ccccc4)c(OC)cc32)cc1F (stereo not shown) [BF, 6-(benzyloxy)-1-[(E)-2-(3-fluoro-4-methoxyphenyl)ethenyl]-7-methoxy-1,2,3,4-tetrahydroisoquinoline]	33.5 µM	–
